Source: PubChem BioAssay (NCI)
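Method: 48-hour compound exposure of cells in 96-well plates, five concentrations, linear interpolation of endpoints. At the TGI there is no net growth.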

Test system: RXF-631 renal
Assay: NCI-60 cell line screen, 48 h

**Q.** For `C=C(C)C1Cc2c(cc(O)c3c(=O)c4ccccc4n(C)c23)O1` (stereo unspecified), which TGI is on record?
**A.** > 100 µM
